Assay results taken from patent publication US10730851B2, “Polymorph of triaryldimethylpiperazine dihydrochloride and preparation method and application thereof” (priority 2016, dated 2020).
Counter-ions that a name gives are not always drawn. Like-named read-outs stand apart in the source and are kept apart here.

Legend:
[1] = Dynamic solubility test in water, SGF, FeSSIF, FaSSIF; assay type: physicochemical; conditions: for pH in clear solution: dihydrochloride; for Solubility: thermodynamic from solid
Method: The dynamic solubility of a free base, polymorph forms B, P, F, J and O in water or a biological medium such as Stimulated Gastric Fluid (SGF), Fed State Simulated Intestinal Fluid (FeSSIF) or Fasted State Simulated Intestinal Fluid (FaSSIF) is determined.
0.2 g sodium chloride and 0.1 g Triton X-100 is weighed and placed into a 100 mL volumetric flask. Purified water is added to dissolve. A stir is performed until the solid is completely dissolved. About 135 μL concentrated hydrochloric acid solution (37%, […]) is added, then the pH is adjusted to 1.8 with […] hydrochloric acid or 1 mmoL/L sodium hydroxide. Finally, the volume is fixed with purified water to obtain Stimulated Gastric Fluid (SGF) for later use.
Each of 0.41 mL glacial acetic acid, 0.20 g sodium hydroxide and 0.59 g sodium chloride is weighed and placed to a 50 mL volumetric flask. About 48 mL purified water is added to dissolve, the pH is adjusted to 5.0 with 1 mmoL/L hydrochloric acid or 1 mmoL/L sodium hydroxide, and the volume is fixed with purified water. Then 0.56 g of Simulated Intestinal Fluid powder (SIF powder for short, which is composed of […] with a molar ratio of 4:1) is added, stirred and ultrasonically dissolved to obtain Fed State Simulated Intestinal Fluid (FeSSIF) for later use.
Each of 0.17 g of anhydrous sodium dihydrogen phosphate (NaH2PO4), 0.021 g of sodium hydroxide and 0.31 g of sodium chloride is weighed and placed into a 50 mL volumetric flask. About 48 mL of purified water is added to dissolve, the pH is adjusted to 6.5 with 1 mmoL/L hydrochloric acid or 1 mmoL/L sodium hydroxide, and the volume is fixed with purified water. 0.11 g of SIF powder is added, stirred and ultrasonically dissolved to obtain Fasted State Simulated Intestinal Fluid (FaSSIF) for later use.
Each 30 mg of the free base, and polymorph forms B, P, F, J and O are weighed. 3 mL of purified water, Stimulated Gastric Fluid (SGF), Fed State Simulated Intestinal Fluid (FeSSIF) or Fasted State Simulated Intestinal Fluid (FaSSIF)) is added and oscillated at room temperature. 0.6 mL of suspension is taken each time at a set time point, filtered and separated with a 0.45 μm nylon filter membrane, then XRPD characterization is performed on the solid sample, and the concentration in the clear solution is measured by HPLC.

SPF-grade SD rats = assay: Forced swimming test; assay type: in vivo; conditions: for Behavior duration, Static / Behavior duration, Swimming / Behavior duration, Wall climbing / Number of behaviors, Static / Number of behaviors, Swimming / Number of behaviors, Wall climbing: x ± SEM
Method: Forced swimming test is used to test the antidepressant effects of polymorph forms P, F, O, B and J.
the swimming test equipment is a transparent glass round cylinder with a height of 46 cm and an inner diameter of 20 cm, the test water temperature is 23° C.˜25° C., the test water depth is 30 cm, and each cylinder is used only once.
300 mg of a polymorph form P is weighed with an electronic balance, and the polymorph form P is dissolved with 0.9% normal saline, and finally the volume is fixed to 100 mL with 0.9% normal saline, at this time, the concentration of dihydrochloride in the experimental reagent is 3 mg/mL for later use.
600 mg of a polymorph form P is weighed with an electronic balance, and the polymorph form P is dissolved with 0.9% normal saline, and finally the volume is fixed to 100 mL with 0.9% normal saline, at this time, the concentration of dihydrochloride in the experimental reagent is 6 mg/mL for later use.
400 mg of desipramine (DMI) is weighed with an electronic balance, DMI is dissolved with 0.9% normal saline, and then the volume is fixed to 100 mL with 0.9% normal saline for later use.
Forty SPF-grade SD rats are prepared and randomly divided into 4 groups, namely vehicle control group, positive control group, experimental group 1 and experimental group 2, with 10 rats in each group. The day before the test, the rats were placed in water for 15 min to pre-swim for 15 min in advance to adapt to the swimming test environment, then taken out and dried, placed in the cage under an infrared lamp for 15 min and then placed in the original cage. After 24 h, a formal swimming test is conducted, that is, the rats are put into water again after 24 h, and the rats are continuously observed for 5 min. The swimming process are needed to be photographed. The drug is administered during two swimming sessions.
The positive control group containing DMI is administered three times, at 23.5 h, 5 h and 1 h before the formal swimming test respectively. Vehicle control group, experimental group 1 and experimental group 2 are each administered only once and subcutaneously within 1 h.
The behaviors of the rats are scored by the scorer every 5 seconds after recording the experiment.
1) Static—when the rat floats on the water surface without struggling and moves only to keep its head above the water surface, the rat is evaluated as static;
2) Swimming—if the rats have obvious swimming behaviors, not only to keep their heads above the water surface, or to travel around in a round cylinder, they are evaluated as swimming;
3) Wall climbing—the rats' front paws have obvious behavior of entering and leaving the water surface, usually, rats are evaluated as wall climbing in front of the round cylinder wall.
All behavioral are scored by a single person. To avoid bias of observation, the scorer only observed and scored without knowing the administration situations. Then multiple test fragments are randomly selected, and the scorer will score the second round to determine the accuracy of observation. The test video is scored again by the second scorer to determine the accuracy between scorers. The second scorer are also required to observe without knowing the drug administration. Finally, in order to determine the effectiveness of the method, the first scorer scored again and recorded the duration of various behaviors with a stopwatch.
SPSSwin11.0 software is used for variance analysis. One-way variance analysis is used for homogeneity of variance, and Dunnett test is used for heterogeneity of variance.

[2] = Experiment group 1, 30 mg/kg Sc once
[3] = Experiment group 2, 60 mg/kg Sc once

Structure (SMILES): CC1CCN(C(=O)c2ccc([C@H](c3cccc(O)c3)N3C[C@@H](C)N(Cc4cccc(F)c4)C[C@@H]3C)cc2)CC1 [Polymorph form P, (4-((R)-((2S,5R)-4-(3-fluorobenzyl)-(2,5-dimethylpiperazine-1-yl)(3-hydroxyphenyl)methyl)phenyl)(4-methylpiperidine-1-yl)methanone dihydrochloride]
- solubility compared with the free base [1]: significantly improved
- pH in clear solution ([1]; FaSSIF, Time 1): 3.0
- pH in clear solution ([1]; FaSSIF, Time 2): 2.7
- pH in clear solution ([1]; FaSSIF, Time 4): 2.2
- pH in clear solution ([1]; FaSSIF, Time 24): 2.6
- pH in clear solution ([1]; FeSSIF, Time 1): 5.0
- pH in clear solution ([1]; FeSSIF, Time 2): 4.9
- pH in clear solution ([1]; FeSSIF, Time 4): 5.0
- pH in clear solution ([1]; FeSSIF, Time 24): 4.6
- pH in clear solution ([1]; SGF, Time 1): 1.6
- pH in clear solution ([1]; SGF, Time 2): 1.7
- pH in clear solution ([1]; SGF, Time 4): 1.6
- pH in clear solution ([1]; SGF, Time 24): 1.5
- pH in clear solution ([1]; Water, Time 1): 1.9
- pH in clear solution ([1]; Water, Time 2): 1.9
- pH in clear solution ([1]; Water, Time 4): 1.9
- pH in clear solution ([1]; Water, Time 24): 1.6
- Crystal form of insoluble solid sample ([1]; pH 1.8): invariability
- solubility compared with the free base ([1]; pH 1.8): close to or slightly improved
- Solubility ([1]; pH 1.8, simulated gastric fluid): 3400 µg/mL
- Crystal form of insoluble solid sample ([1]; pH 5): invariability
- Solubility ([1]; pH 5, fessif): 430 µg/mL
- Crystal form of insoluble solid sample ([1]; pH 6.5): invariability
- Behavior duration, Static (SPF-grade SD rats; [2]): 45.5 ± 7.5 s
- Behavior duration, Swimming (SPF-grade SD rats; [2]): 142.5 ± 21.5 s
- Behavior duration, Wall climbing (SPF-grade SD rats; [2]): 114.0 ± 19.0 s
- Number of behaviors, Static (SPF-grade SD rats; [2]): 9.1 ± 1.5 times
- Number of behaviors, Swimming (SPF-grade SD rats; [2]): 28.5 ± 4.3 times
- Number of behaviors, Wall climbing (SPF-grade SD rats; [2]): 22.8 ± 3.8 times
- Behavior duration, Static (SPF-grade SD rats; [3]): 88.5 ± 8.0 s
- Behavior duration, Swimming (SPF-grade SD rats; [3]): 122.0 ± 14.0 s
- Behavior duration, Wall climbing (SPF-grade SD rats; [3]): 91.0 ± 5.5 s
- Number of behaviors, Static (SPF-grade SD rats; [3]): 17.7 ± 1.6 times
- Number of behaviors, Swimming (SPF-grade SD rats; [3]): 24.4 ± 2.8 times
- Number of behaviors, Wall climbing (SPF-grade SD rats; [3]): 18.2 ± 1.1 times
- antidepressant effect in forced swimming test (in words) (SPF-grade SD rats; rats, dihydrochloride): better antidepressant effect
